In US9260425B2 (Genetech, Inc., priority 2011, dated 2016):
Read-outs that look alike come from different tables or passages of the source.

Columns and labels:
Pim-1 = Pim-1 (Homo sapiens (Human), UniProt P11309); assay: Pim kinase binding activity assay (Example 901), PIM-1 enzyme, Caliper microfluidic peptide phosphorylation; assay type: biochemical; settings: 20 pM PIM-1, 10 μM ATP, 1 μM FAM-peptide, 90 minutes at room temperature
Method in brief: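 The readout was microfluidic mobility-shift separation of a FAM-tagged Pim-specific peptide, excited at 488 nm and read at 530 nm, with Ki calculated from percent conversion. Reactions held 20 pM PIM-1, 1 μM peptide and 10 μM ATP in pH 7.2 HEPES/MgCl2/DTT buffer, ran 90 min at room temperature and were stopped with EDTA.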

BaF3 parental cells = assay: In vitro cell proliferation potency assay, BaF3 parental line with IL-3 (Cell Titer Glo); assay type: cell-based, murine; settings: Mus musculus, 2 ng/mL mIL-3, incubated overnight, read-out: Prolif. BaF3 IL3 (IC50)
Experimental: (§1) In Vitro Cell Proliferation Potency Assays
(§2) BaF3 parental line was obtained from the DSMZ repository. BaF3 lines transfected with PIM-1 or PIM-2 were generated. Mouse IL-3 was purchased from R&D Systems. G418 was purchased from Clontech. Media for BaF3 parental line contained RPMI, 10% FBS, 2 mM L-Glutamine, 2 ng/mL mIL-3. Media for BaF3 PIM1 & 2 lines contained RPMI, 10% FBS, 2 mM L-Glutamine, […]. Media for MM1.S (multiple myeloma cells) line contained RPMI, 10% FBS, 2 mM L-Glutamine.
(§3) BaF3, a murine interleukin-3 dependent pro-B cell line, parental cells, BaF3 PIM1 cells, BaF3 PIM-2 cells, and MM1.S (multiple myeloma) cells were seeded at 2 k/well, 5 k/well, 5 k/well, and 10 k/well respectively, in a 384-well plate, at 45 μL/well. Test compound was added at 5 μL/well. BaF3 cells (parental and transfected) were incubated overnight, while MM1.S cells were incubated for 72 hours at 37° C., 5% CO2. Cell Titer Glo Reagent (Promega) was added at 50 μL/well, the plates were incubated for 30 minutes, and their luminescence read on an HT Analyst. IC50/EC50 values for the test compound were calculated.

BaF3 PIM1 cells = assay: In vitro cell proliferation potency assay, BaF3 line transfected with PIM-1 (Cell Titer Glo); assay type: cell-based, murine; settings: incubated overnight, read-out: Prolif. BaF3 PIM-1 (IC50)
Experimental: as §1
as §2, with “BaF3 lines transfected with PIM-1 or PIM-2 were generated.” left out
as §3

[1] = tested on: MM1.S (multiple myeloma) cells; assay: In vitro cell proliferation potency assay, MM1.S cells (Cell Titer Glo); assay type: cell-based; settings: Homo sapiens, 72 hours, read-out: Prolif. MM1S ATP (EC50)
Experimental: as §1, §2, §3

Sequence of Pim-1 (P11309 whole entry): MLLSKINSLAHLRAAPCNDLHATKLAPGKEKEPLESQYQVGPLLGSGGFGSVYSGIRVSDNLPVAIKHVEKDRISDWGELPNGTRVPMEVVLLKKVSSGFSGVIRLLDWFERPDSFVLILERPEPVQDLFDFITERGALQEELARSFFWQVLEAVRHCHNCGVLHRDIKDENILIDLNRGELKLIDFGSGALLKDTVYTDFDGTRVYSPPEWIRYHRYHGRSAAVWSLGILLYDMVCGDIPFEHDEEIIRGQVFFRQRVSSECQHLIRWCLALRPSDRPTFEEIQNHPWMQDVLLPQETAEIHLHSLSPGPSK

| Compound | Ki (Pim-1) | IC50 (BaF3 PIM1 cells; Mus musculus) | EC50 [1] | IC50 (BaF3 PIM1 cells) | IC50 (BaF3 parental cells) |
| --- | --- | --- | --- | --- | --- |
| N[C@@H]1CCCN(c2cccc(-c3n[nH]c4cnc(-c5cccnc5)cc34)n2)CC1 [Example 249, (R)-1-(6-(5-(pyridin-3-yl)-1H-pyrazolo[3,4-c]pyridin-3-yl)pyridin-2-yl)azepan-4-amine] | 0.02 nM | 518 nM | 191 nM | – | 2500 nM |
| c1ccc(-c2n[nH]c3cnc(-c4cccnc4)cc23)cc1 [Example 116, 3-phenyl-5-(pyridin-3-yl)-1H-pyrazolo[3,4-c]pyridine] | – | – | – | – | 13700 nM |
| N[C@@H]1CCCN(c2cccc(-c3n[nH]c4cnc(-c5cccnc5)cc34)n2)C1 [Example 149, (R)-1-(6-(5-(pyridin-3-yl)-1H-pyrazolo[3,4-c]pyridin-3-yl)pyridin-2-yl)piperidin-3-amine] | 0.027 nM | 261 nM | 166 nM | – | 1500 nM |
| NC[C@H]1CCN(c2cccc(-c3n[nH]c4cnc(-c5cccnc5)cc34)n2)C1 [Example 270, (R)-(1-(6-(5-(pyridin-3-yl)-1H-pyrazolo[3,4-c]pyridin-3-yl)pyridin-2-yl)pyrrolidin-3-yl)methanamine] | – | 478 nM | 707 nM | – | 13100 nM |
| Cn1cc(-c2cc3c(-c4cccc(N5CCC[C@H](N)C5)n4)n[nH]c3cn2)cn1 [Example 173, (S)-1-(6-(5-(1-methyl-1H-pyrazol-4-yl)-1H-pyrazolo[3,4-c]pyridin-3-yl)pyridin-2-yl)piperidin-3-amine] | – | – | 376 nM | 251 nM | 5700 nM |
| C=Cc1ccc(-c2n[nH]c3cnc(-c4cccnc4)cc23)nc1N1CCC[C@H](N)C1 [Example 307, (S)-1-(6-(5-(pyridin-3-yl)-1H-pyrazolo[3,4-c]pyridin-3-yl)-3-vinylpyridin-2-yl)piperidin-3-amine] | 0.014 nM | 67.1 nM | 141 nM | – | 1400 nM |
| Cn1cc(-c2cc3c(-c4ccccc4F)n[nH]c3cn2)cn1 [Example 129, 3-(2-fluorophenyl)-5-(1-methyl-1H-pyrazol-4-yl)-1H-pyrazolo[3,4-c]pyridine] | 7.85 nM | 5200 nM | – | – | 5600 nM |
| N[C@H]1CCCN(c2cncc(-c3cc4c(-c5ccccc5F)n[nH]c4cn3)n2)C1 [Example 152, (S)-1-(6-(3-(2-fluorophenyl)-1H-pyrazolo[3,4-c]pyridin-5-yl)pyrazin-2-yl)piperidin-3-amine] | – | 47.1 nM | 631 nM | – | 2700 nM |
| Fc1ccccc1-c1n[nH]c2cnc(-c3cccnc3)cc12 [Example 117, 3-(2-fluorophenyl)-5-(pyridin-3-yl)-1H-pyrazolo[3,4-c]pyridine] | – | 18800 nM | – | – | 12900 nM |
| N[C@@H]1CCCN(c2cncc(-c3cc4c(-c5ccccc5F)n[nH]c4cn3)n2)C1 [Example 153, (R)-1-(6-(3-(2-fluorophenyl)-1H-pyrazolo[3,4-c]pyridin-5-yl)pyrazin-2-yl)piperidin-3-amine] | – | 28 nM | 436 nM | – | 2500 nM |
| NCC1CCN(c2cncc(-c3n[nH]c4cnc(-c5cccnc5)cc34)c2)CC1 [Example 165, (1-(5-(5-(pyridin-3-yl)-1H-pyrazolo[3,4-c]pyridin-3-yl)pyridin-3-yl)piperidin-4-yl)methanamine] | 0.985 nM | – | – | – | – |
| Cc1ccc(-c2n[nH]c3cnc(-c4cccnc4)cc23)nc1N1CCC(O)CC1 [Example 288, 1-(3-methyl-6-(5-(pyridin-3-yl)-1H-pyrazolo[3,4-c]pyridin-3-yl)pyridin-2-yl)piperidin-4-ol] | 0.086 nM | – | – | – | – |
| N[C@H]1CCCC(Nc2cccc(-c3n[nH]c4cnc(-c5cccnc5)cc34)n2)C1 (stereo in doubt) [Example 245, (1S,3S)—N1-(6-(5-(pyridin-3-yl)-1H-pyrazolo[3,4-c]pyridin-3-yl)pyridin-2-yl)cyclohexane-1,3-diamine] | 0.0079 nM | – | – | – | – |

More lines, main results first:

| Ki (Pim-1) | IC50 (BaF3 PIM1 cells; Mus musculus) | EC50 [1] | IC50 (BaF3 PIM1 cells) | Compound | IC50 (BaF3 parental cells) |
| --- | --- | --- | --- | --- | --- |
| 0.08 nM | 63.7 nM | 230 nM | – | CCn1cc(-c2cc3c(-c4cccc(N5CCC[C@H](NC)C5)n4)n[nH]c3cn2)cn1 [Example 377, (S)-1-(6-(5-(1-ethyl-1H-pyrazol-4-yl)-1H-pyrazolo[3,4-c]pyridin-3-yl)pyridin-2-yl)-N-methylpiperidin-3-amine] | 5300 nM |
| 0.057 nM | 129 nM | 228 nM | – | CC(C)Cn1cc(-c2cc3c(-c4cccc(N5CCNCC5)n4)n[nH]c3cn2)cn1 [Example 381, 5-(1-isobutyl-1H-pyrazol-4-yl)-3-(6-(piperazin-1-yl)pyridin-2-yl)-1H-pyrazolo[3,4-c]pyridine] | 2200 nM |
| 0.132 nM | 58.5 nM | 130 nM | – | c1cc(-c2n[nH]c3cnc(-c4cnn(C5CCC5)c4)cc23)nc(N2CCNCC2)c1 [Example 390, 5-(1-cyclobutyl-1H-pyrazol-4-yl)-3-(6-(piperazin-1-yl)pyridin-2-yl)-1H-pyrazolo[3,4-c]pyridine] | 5700 nM |
| 0.073 nM | 76.6 nM | 638 nM | – | CCn1cc(-c2cc3c(-c4cccc(N5CCNCC5)n4)n[nH]c3cn2)cn1 [Example 356, 5-(1-ethyl-1H-pyrazol-4-yl)-3-(6-(piperazin-1-yl)pyridin-2-yl)-1H-pyrazolo[3,4-c]pyridine] | 5400 nM |
| – | 681 nM | 393 nM | – | N[C@H]1CCCN(c2cccc(-c3n[nH]c4cnc(-c5cncs5)cc34)n2)C1 [Example 349, (S)-1-(6-(5-(thiazol-5-yl)-1H-pyrazolo[3,4-c]pyridin-3-yl)pyridin-2-yl)piperidin-3-amine] | 3400 nM |
| – | 188 nM | 287 nM | – | N[C@@H]1CCCN(c2cccc(-c3n[nH]c4cnc(-c5cncs5)cc34)n2)C1 [Example 350, (R)-1-(6-(5-(thiazol-5-yl)-1H-pyrazolo[3,4-c]pyridin-3-yl)pyridin-2-yl)piperidin-3-amine] | 3600 nM |
| – | 274 nM | 3200 nM | – | COCCn1cc(-c2cc3c(-c4cccc(N5CCNCC5)n4)n[nH]c3cn2)cn1 [Example 382, 5-(1-(2-methoxyethyl)-1H-pyrazol-4-yl)-3-(6-(piperazin-1-yl)pyridin-2-yl)-1H-pyrazolo[3,4-c]pyridine] | 17000 nM |
| 0.026 nM | – | – | – | CCn1cc(-c2cc3c(-c4ccc(Br)c(N5C[C@@H](N)C[C@@H](F)C5)n4)n[nH]c3cn2)cn1 [Example 454, (3S,5R)-1-(3-bromo-6-(5-(1-ethyl-1H-pyrazol-4-yl)-1H-pyrazolo[3,4-c]pyridin-3-yl)pyridin-2-yl)-5-fluoropiperidin-3-amine] | – |
| 1.29 nM | – | – | – | CC(C)(CN)Cn1cc(-c2n[nH]c3cnc(-c4cccnc4)cc23)ccc1=O [Example 379, 1-(3-amino-2,2-dimethylpropyl)-5-(5-(pyridin-3-yl)-1H-pyrazolo[3,4-c]pyridin-3-yl)pyridin-2(1H)-one] | – |
| 0.056 nM | – | – | – | Cc1ccc(-c2n[nH]c3cnc(-c4cnn(C)c4)cc23)nc1N1C[C@@H](N)C[C@@H](F)C1 [Example 509, (3S,5R)-5-fluoro-1-(3-methyl-6-(5-(1-methyl-1H-pyrazol-4-yl)-1H-pyrazolo[3,4-c]pyridin-3-yl)pyridin-2-yl)piperidin-3-amine] | – |
| 0.031 nM | – | – | – | CCn1cc(-c2cc3c(-c4cccc(N5CCC[C@H](N)C5)n4)n[nH]c3cn2)cn1 [Example 445, (S)-1-(6-(5-(1-ethyl-1H-pyrazol-4-yl)-1H-pyrazolo[3,4-c]pyridin-3-yl)pyridin-2-yl)piperidin-3-amine] | – |
| 0.0941 nM | – | – | – | Cn1cc(-c2cc3c(-c4ccnc(N5CCC[C@H](N)C5)n4)n[nH]c3cn2)cn1 [Example 365, (S)-1-(4-(5-(1-methyl-1H-pyrazol-4-yl)-1H-pyrazolo[3,4-c]pyridin-3-yl)pyrimidin-2-yl)piperidin-3-amine] | – |
| 0.571 nM | – | – | – | Cn1cc(-c2cc3c(-c4ccnc(C5CCNCC5)n4)n[nH]c3cn2)cn1 [Example 439, 5-(1-methyl-1H-pyrazol-4-yl)-3-(2-(piperidin-4-yl)pyrimidin-4-yl)-1H-pyrazolo[3,4-c]pyridine] | – |
| 0.268 nM | – | – | – | CCn1cc(-c2cc3c(-c4cccc(N5CCN(C)CC5)n4)n[nH]c3cn2)cn1 [Example 372, 5-(1-ethyl-1H-pyrazol-4-yl)-3-(6-(4-methylpiperazin-1-yl)pyridin-2-yl)-1H-pyrazolo[3,4-c]pyridine] | – |
